The values that follow are results of earlier work, collected in patent publication US20060019940A1, “Novel benzoxazocines and their therapeutic use” (priority 2002, published 2006).

The test system of data set [1] is synaptosomal uptake of dopamine, norepinephrine and serotonin. The following applies: order of potency (+)-nefopam>(±)-nefopam>(−)-nefopam.
The conditions of data set [2]: order of potency (+)-nefopam>(±)-nefopam>(−)-nefopam.

In the case of `CN1CCO[C@@H](c2ccccc2)c2ccccc2C1` [(+)-nefopam], in data set [1], the “dopamine, norepinephrine and serotonin uptake inhibitory properties compared with (−)-nefopam” value was “more potent”. Also, the “analgesic properties compared with (−)-nefopam” value in data set [2] is on record as “more potent”.
